In brackets after ≈: the same amount, converted by molar mass.
How the values were obtained:
[1] = type: cell-based, African green monkey; details: African green monkey
[2] = test system: M. tuberculosis H37Rv (ATCC 27294); test: Microplate Alamar Blue Assay; type: cell-based, Mycobacterium tuberculosis; details: for MIC, H37Rv: MABA, concentration giving ≥ 90% inhibition, 7 days, 37 °C, triplicate; for SI (selectivity index = IC50/MIC), H37Rv: Vero IC50 / MIC H37Rv, limited by 120 μg/ml cytotoxicity cutoff
[3] = test system: Mycobacterium tuberculosis (H37Rv and ERDMAN); test: MABA, result stated for both strains without assignment; type: cell-based
[4] = test system: M. tuberculosis Erdman (ATCC 35801); test: Microplate Alamar Blue Assay; type: cell-based, Mycobacterium tuberculosis; details: for MIC, Erdman: MABA, concentration giving ≥ 90% inhibition, 7 days, 37 °C, triplicate; for SI (selectivity index = IC50/MIC), Erdman: Vero IC50 / MIC Erdman, limited by 120 μg/ml cytotoxicity cutoff
Vero cells = type: cell-based, African green monkey; details: Vero cells, 72 hours; cutoff 120 μg/ml

| Structure (SMILES) | IC50 at 72 h [1] [µg/mL] | MIC, H37Rv [2] | SI (selectivity index = IC50/MIC), H37Rv [2] | MIC [3] [µg/mL] | MIC, Erdman [4] | SI (selectivity index = IC50/MIC), Erdman [4] | Cytotoxicity IC50 (Vero cells) [µg/mL] |
| --- | --- | --- | --- | --- | --- | --- | --- |
| C=C[C@@H](O)C#CC#C[C@@H](O)/C=C\CCCCCCC [Compound 1, falcarindiol] | > 120 | 26.7 µg/mL (≈ 103 µM) | >4 | 1.4 to 26.7 (≈ 5.38 to 103 µM) | 6.0 µg/mL (≈ 23 µM) | >19 | – |
| C=CC(O)C#CC#CC(O)/C=C\CCCCCCCCOC(C)=O (stereo not drawn) [Compound 2, 9Z,17-octadecadiene-12,14-diyne-1,11,16-triol,1-acetate] | – | 25.3 µg/mL (≈ 76.1 µM) | >4 | – | 1.4 µg/mL (≈ 4.21 µM) | > 100 | >120 |
| CCCCCCC/C=C\[C@H](O)C#CC#C[C@@H](O)CC [Compound 3, oplopandiol] | > 120 | 50.2 µg/mL (≈ 191 µM) | >2 | – | 49.5 µg/mL (≈ 189 µM) | >2 | – |
| C=CC(O)C#CC#CC(O)C1OC1CCCCCCC (stereo not drawn) [Compound 4, heptadeca-1-ene-9,10-epoxy-4,6-diyne-3,8-diol] | – | – | – | – | – | – | >120 |
| CCCCCCC/C=C\C(O)C#CC#CC(=O)CCOC (stereo not drawn) [Compound 5, 8-hydroxy-1-methoxy-(Z)-9-heptadecene-4,6-diyn-3-one] | > 120 | above 60 μg/mL | – | > 60 | above 60 μg/mL | – | – |
| CO[C@H]1/C=C/O[C@@]2(C)Oc3c(C)c(O)c4c(O)c(c(/C=N/N5CCN(C)CC5)c(O)c4c3C2=O)NC(=O)/C(C)=C\C=C\[C@H](C)[C@H](O)[C@@H](C)[C@@H](O)[C@@H](C)[C@H](OC(C)=O)[C@@H]1C [RMP, Rifampin, reference compound] | 112 (≈ 136 µM) | – | 1860 | – | – | 2232 | – |

— article PMC2504689 (Phytotherapy research : PTR, 2008)
